Experiments:
[1] = test system: V. harveyi reporter strain BB170 (Sensor 1−, Sensor 2+); assay type: cell-based, Vibrio harveyi; conditions: candidates for the signal tested
Procedure: Cell-free culture fluids from E. coli, S. typhimurium and V. harveyi strains were tested for the presence of signaling substances that could induce luminescence in the V. harveyi reporter strain BB170 or BB886. […] Positive control wells contained 10 μl of cell-free culture fluid from strain V. harveyi BB152 (Autoinducer-1^−, Autoinducer-2^+) or V. harveyi BB120 (Autoinducer-1^+, Autoinducer-2^+). Negative control wells contained 10 μl of sterile growth medium. The microtiter dishes were shaken in a rotary shaker at 175 rpm at 30° C.
The cell density was measured by diluting the same aliquots of cells used for measuring luminescence, spreading the dilutions onto solid LM medium, incubating the plates overnight at 30° C., and counting the resulting colonies the following day. […] Cell-free culture supernatants from V. harveyi or S. typhimurium strains were added to a final concentration of 10% (v/v) at the time of the first measurement. In control experiments, 10% (v/v) of AB medium, LB medium or LB medium containing 0.5% glucose was added instead of cell-free culture fluids.

[2] = test system: V. harveyi reporter strain BB886 (Sensor 1+, Sensor 2−); assay: V. harveyi BB886 luminescence stimulation bioassay; assay type: cell-based, Vibrio harveyi; conditions: non self-stimulating sensor-1+, sensor-2− mutant (BB886)
Procedure: Assay for production of signaling compounds. Cell-free culture fluids from E. coli, S. typhimurium and V. harveyi strains were tested for the presence of signaling substances that could induce luminescence in the V. harveyi reporter strain BB170 or BB886. In the assays, 10 μl of cell-free culture fluids from E. coli ABI157, E. coli DH5, and S. typhimurium LT2 strains grown and harvested as described above were added to 96-well microtiter dishes. The V. harveyi reporter strain BB170 or BB886 was grown for 16 h at 30° C. with aeration in AB medium, diluted 1:5000 into fresh AB medium, and 90 µl of the diluted cells were added to the wells containing the E. coli and S. typhimurium cell-free culture fluids. Positive control wells contained 10 μl of cell-free culture fluid from strain V. harveyi BB152 (Autoinducer-1^−, Autoinducer-2^+) or V. harveyi BB120 (Autoinducer-1^+, Autoinducer-2^+). Negative control wells contained 10 μl of sterile growth medium. […] Every hour, light production was measured using a Wallac Model 1450 Microbeta Plus liquid scintillation counter in the chemiluminescence mode. The V. harveyi cell density was measured by diluting the same aliquots of cells used for measuring luminescence, spreading the dilutions onto solid LM medium (Bassler et al., 1993, supra), incubating the plates overnight at 30° C., and counting the resulting colonies the following day. […]

Row | Structure (SMILES) | activity (induction of luminescence expression in V. harveyi) [1] | lowest concentration to which the assay was sensitive [2] [nM]
1 | N[C@H]1CCOC1=O [homoserine lactone, reference compound] | None of these compounds has activity | 
2 | CC(=O)O [acetate, reference compound] | None of these compounds has activity | 
3 | O=C(O)CCC(=O)C(=O)O [-ketoglutarate, reference compound] | None of these compounds has activity | 
4 | C[C@@H](O)CC(=O)N[C@H]1CCOC1=O [AI-1, N-(3-hydroxybutanoyl)-L-homoserine lactone, reference compound] |  | 100

Source: patent publication US7183099B2, “Inhibitors of autoinducer transporters” (Princeton University, priority 2001, dated 2007)
